Laboratory results: patent publication US4681882A, “4-alkoxy-pyrido[2,3-d]pyrimidine derivatives” (Godecke Aktiengesellschaft, priority 1984, dated 1987)

Legend:
[1] = test system: arteria coronaria vessel rings; test: Inhibition of K^+ depolarization contraction of isolated vessel rings (a. coronaria) in the organ bath; assay type: cell-based; settings: rabbit a. coronaria rings, mean diameter 0.5-1.0 mm, potassium depolarization in Tyrode's solution, read-out: Concentration (IC50) effecting a semimaximal inhibition of the K^+ -depolarization contraction of vessel rings, a. coronaria
From the text: (§1) Of rabbits (vessel ring segments of arteria basilaris and a. coronaria are mounted in an organ bath in a way to allow the measurement of isometric contractions. Contractile activity is elicited by a potassium depolarization in Tyrode's solution. This experimental set-up is a well-known standard model for the identification of substances blocking the calcium channels opened during the potassium depolarization (Fleckenstein, Calcium Antagonism in Heart and Smooth Muscle, J. Wiley & Sons, 1983).
(§2) Concentrations (IC50, mol/l) of compounds effecting a semimaxi-
(§3) mal inhibition of the K^+ -depolarization contraction of vessel
(§4) in the organ bath. A. bas. = arteria basilaris, a cor. = arteria
(§5) coronaria of the rabbit; mean diameter 0.5-1.0 mm.

[2] = test system: arteria basilaris vessel rings; test: Inhibition of K^+ depolarization contraction of isolated vessel rings (a. basilaris) in the organ bath; assay type: cell-based; settings: rabbit a. basilaris rings, mean diameter 0.5-1.0 mm, potassium depolarization in Tyrode's solution, read-out: Concentration (IC50) effecting a semimaximal inhibition of the K^+ -depolarization contraction of vessel rings, a. basilaris
From the text: as §1, §2, §3, §4, §5

SMILES	IC50 [1] [nM]	IC50 [2] [nM]
COCCOC(=O)C1=C(C)Nc2ncnc(OC(C)C)c2C1c1cccc([N+](=O)[O-])c1 (racemic) [Example 1b, (±)-5,8-Dihydro-4-isopropoxy-7-methyl-5-(3-nitrophenyl)pyrido[2,3-d]pyrimidine-6-carboxylic acid(2-methoxy)ethyl ester]	34	39
COC(=O)C1=C(C)Nc2ncnc(OC(C)C)c2C1c1ccccc1C(F)(F)F (racemic) [Example 1c, (±)-5,8-Dihydro-4-isopropoxy-7-methyl-5-(2-trifluromethylphenyl)pyrido[2,3-d]pyrimidine-6-carboxylic acid methyl ester]	45	40
CCOC(=O)C1=C(N)Nc2ncnc(OC(C)C)c2C1c1ccccc1OC (racemic) [Example 1e, (±)-7-Amino-5,8-dihydro-4-isopropoxy-5-(2-methoxyphenyl)pyrido[2,3-d]pyrimidine-6-carboxylic acid ethyl ester]	73	2800
CCOC(=O)C1=C(C)Nc2ncnc(OC(C)C)c2C1c1ccccc1C(F)(F)F (racemic) [Example 1f, (±)-5,8-Dihydro-4-isopropoxy-7-methyl-5-(2-trifluoromethylphenyl)pyrido[2,3-d]pyrimidine-6-carboxylic acid ethyl ester]	34	38

Further lines, results first:

IC50 [1] [nM]	IC50 [2] [nM]	SMILES
160	33	CC1=C(C(=O)OC(C)C)C(c2cccc([N+](=O)[O-])c2)c2c(ncnc2OC(C)C)N1 (racemic) [Example 1d, (±)-5,8)Dihydro-4-isopropoxy-7-methyl-5-(3-nitrophenyl)pyrido[2,3-d]pyrimidine-6-carboxylic acid isopropyl ester]
230	28	COC(=O)C1=C(C)Nc2ncnc(OC(C)C)c2C1c1cccc([N+](=O)[O-])c1 (racemic) [Example 1g, (±)-5,8-Dihydro-4-isopropoxy-7-methyl-5-(3-nitrophenyl)pyrido[2,3-d]pyrimidine-6-carboxylic acid methyl ester]
140	2.5	COc1ncnc2c1C(c1cccc([N+](=O)[O-])c1)C(C(=O)OC(C)C)=C(C)N2 (racemic) [Example 2, (±)-5,8-Dihydro-4-methoxy-7-methyl-5-(3-nitrophenyl)pyrido[2,3-d]pyrimidine-6-carboxylic acid isopropyl ester]
